The values below come from ChEMBL document CHEMBL1150210, “Metabolism of the Catharanthus alkaloids: from Streptomyces griseus to monoamine oxidase B” (J Nat Prod, 1992).

This data set can be described thus: Drug level in mouse liver mitochondria. Conditions: in vivo. The class given is ADME.

`CC[C@]1(O)C[C@@H]2CN(CCc3c([nH]c4ccccc34)[C@@](C(=O)OC)(c3cc4c(cc3OC)N(C)[C@H]3[C@@](O)(C(=O)OC)[C@H](OC(C)=O)[C@]5(CC)C=CCN6CC[C@]43[C@@H]65)C2)C1` [VINBLASTINE]: the Drug uptake was 18.7%.
